Laboratory results: patent US7371742B2, “Porphyrin derivatives for photodynamic therapy” (Institut Curie, priority 2001, dated 2008)
Read-outs that look alike come from different tables or passages of the source.

What was measured:
FT-1 cells = assay: FT-1 cell photocytotoxicity; type: cell-based, human; details: for Photocytotoxicity FT-1, Red: Red light, concentration not given
A549 = A549 photocytotoxicity (entries inside Table B cells); type: cell-based; details: A549 named inside the cell; concentration not given
[1] = system: RBY-79 (indifferently named Y-79) cells; assay: RBY-79 (Y79) cell cytotoxicity / photocytotoxicity; details: for Photocytotoxicity RBY-79, concentration giving 50%: 50% effect
Excerpt: (§1) Columns HT29 and Y79 (═RBY79), without light, correspond to the cytotoxic activity.

[2] = system: human colic adenocarcinoma cell line HT29; assay: HT29 cell survival (MTT assay) after 24 h incubation, with or without light irradiation; details: for Photocytotoxicity HT 29, concentration giving 50%: 50% effect; for cytotoxic for HT29 (in words): remark of the inventors
Method: HT29 cells were cultivated in Dulbecco's MEM supplemented with 10% fetal calf serum (FCS). Cells from log-phase culture were seeded in 24-microwell plates (1 mL-5×10^4 cells/well) and kept at 37° C. in a water-jacketed incubator for 2 days under an air/CO2 atmosphere (5% CO2). Tested compounds, in DMSO solution, were added under the minimum volume (5 μL) to reach a concentration ranging from 0.1 to 10 μg/mL. Controls cells received 5 μL of DMSO free of dye. Plates were incubated 24 h, then medium was removed and the cells were washed twice with phosphate buffered saline (PBS) before addition of fresh medium free of drug and irradiation with visible light using a home made “light box” giving a fluence of 3.8 mW/cm^2 on the whole visible spectrum. Irradiation with red light was carried out using the same device fitted with an orange filter (0% T at 520 nm and 80% T at 590 nm) leading to a fluence of 2 mW/cm^2.
Plates were reincubated for 3 days before evaluation of the cell survival using the MTT assay (T. Mosmann, “Rapid calorimetric assay for cellular growth and survival. Application to proliferation assays”. J. Immunol. Methods 65,55-63,1983) using 30 min incubation with 100 μg well of 3-[4,5-dimethylthiazol-2-yl]-2,5-diphenyl tetrazolium bromide (MTT, Sigma). After removal of the medium, formazan crystals were taken up with 100 μL of DMSO and absorbance at 540 ni was measured with a Bio-Rad microplate reader (model 450); survival was expressed as % of untreated controls.

tumoral cells = assay: Antitumoral photodynamic activity in general (remarks on Tables B and C); type: cell-based, human; details: for active when activated by light towards tumoral cells (in words): under appropriate irradiation
Excerpt: The main results for antitumoral effects are reported in Table B, showing the rate of photocytotoxicity. The higher the percentage, the higher the antitumnoral or antiviral effect.
Concerning the antitumoral activity, the compounds obtained by the inventors are active, under appropriate irradiation indicated towards tumoral cells in which these derivatives are able to accumulate.

[3] = system: RBY-79 (indifferently named Y-79) cells
Excerpt: as §1

L-1210 cells = assay: Cytotoxicity L-1210 (no light), cytostatic activity; type: cell-based, human; details: for Cytotoxicity L-1210 (no light), cell marked Red: cell prints 'Red', concentration not given; for Cytotoxicity L-1210 (no light), concentration giving 50%: 50% effect
Excerpt: Column L1210 corresponds to the cytostatic activity.

[4] = patient, cited from earlier work; for period of photosensitivity: after treatment
[5] = read-out: Y79 IC50 (μM) With 2J/cm^2, irradiation with filter (0% T at 520 nm, 80% T at 590 nm), 3.5 mW/cm^2, 10 min
[6] = read-out: Y79 IC50 (μM) without light, without light (cytotoxic activity)
[7] = without light, remark of the inventors
[8] = read-out: HT 29 IC50 (μM) with 2J/cm^2, irradiation with filter (0% T at 520 nm, 80% T at 590 nm), 3.5 mW/cm^2, 10 min
[9] = read-out: HT 29 IC50 (μM) without light, without light (cytotoxic activity)
[10] = with light, compared with its cytotoxicity

Molecule | IC50 [1, 5] | IC50 [1, 6] | IC50 [2, 8] | IC50 [2, 9] | Photocytotoxicity RBY-79, concentration giving 50% ([1]; with light) | Photocytotoxicity HT 29, concentration giving 50% ([2]; with light) | also measured
5,10,15-Tri(3-O-β-D-glucosylphenyl)-2,3-chlorin and 5,10,15-tri(3-O-β-D-glucosylphenyl)-7,8-chlorin [Compound 55] | 3.7 ± 1.8 µM | 8 ± 7 µM | 5.7 ± 3 µM | > 15 µM |  |  | Photocytotoxicity FT-1, Red (FT-1 cells): 25%; Photocytotoxicity A549 (A549): A549, 10%; cytotoxic for Y79 (in words) [1, 7]: cytotoxic; Photocytotoxicity HT 29, Red ([2]; Red light, concentration not given): Red, 0%
5,10,15-tri(para-O-diethyleneglycoloxyphenyl)-20-phenylporphyrin [Compound 75] | 1.2 µM | 4.5 µM | 4.3 µM | 6.5 µM |  |  | biological activities (in words) (tumoral cells; non glycosylated analogue compared with compound 67): totally inactive
OC[C@H]1O[C@H](Sc2c(F)c(F)c(-c3c4nc(c(-c5c(F)c(F)c(F)c(F)c5F)c5ccc([nH]5)c(-c5c(F)c(F)c(F)c(F)c5F)c5nc(c(-c6c(F)c(F)c(F)c(F)c6F)c6ccc3[nH]6)C=C5)C=C4)c(F)c2F)[C@@H](O)[C@@H](O)[C@@H]1O [Compound 30] |  |  |  |  |  |  | Photocytotoxicity RBY-79, % at 2 μg/ml [3]: 90% 2 μg/ml
OC[C@H]1O[C@@H](OCCOc2cccc(-c3c4nc(c(-c5cccc(OCCO[C@@H]6O[C@H](CO)[C@@H](O)[C@H](O)[C@H]6O)c5)c5ccc([nH]5)c(-c5cccc(OCCO[C@@H]6O[C@H](CO)[C@@H](O)[C@H](O)[C@H]6O)c5)c5nc(c(-c6cccc(OCCO[C@@H]7O[C@H](CO)[C@@H](O)[C@H](O)[C@H]7O)c6)c6ccc3[nH]6)CC5)C=C4)c2)[C@H](O)[C@@H](O)[C@@H]1O [Compound 58] |  |  |  |  |  |  | Cytotoxicity L-1210 (no light), cell marked Red (L-1210 cells): Red, 0, A549%; Photocytotoxicity FT-1, Red (FT-1 cells): Red 0%
OC[C@H]1O[C@@H](Oc2cccc(-c3c4nc(c(-c5cccc(O[C@@H]6O[C@H](CO)[C@@H](O)[C@H](O)[C@H]6O)c5)c5ccc([nH]5)c(-c5cccc(O[C@@H]6O[C@H](CO)[C@@H](O)[C@H](O)[C@H]6O)c5)c5nc(c(-c6ccccc6)c6ccc3[nH]6)C=C5)C=C4)c2)[C@H](O)[C@@H](O)[C@@H]1O [Compound 60] |  |  |  |  |  |  | Photocytotoxicity FT-1 (FT-1 cells; concentration and light not given): 0%; Photocytotoxicity A549 (A549): A549, 20%
OC[C@H]1O[C@@H](OCCOc2cccc(-c3c4nc(c(-c5cccc(OCCO[C@@H]6O[C@H](CO)[C@@H](O)[C@H](O)[C@H]6O)c5)c5ccc([nH]5)c(-c5cccc(OCCO[C@@H]6O[C@H](CO)[C@@H](O)[C@H](O)[C@H]6O)c5)c5nc(c(-c6cccc(OCCO[C@@H]7O[C@H](CO)[C@@H](O)[C@H](O)[C@H]7O)c6)c6ccc3[nH]6)C=C5)C=C4)c2)[C@H](O)[C@@H](O)[C@@H]1O [Compound 61] |  |  |  |  |  |  | Cytotoxicity L-1210 (no light), cell marked Red (L-1210 cells): Red, 0%; Photocytotoxicity FT-1, Red (FT-1 cells): Red 0%; Photocytotoxicity A549 (A549): A549, 0%
OC[C@H]1O[C@H](SCc2ccc(-c3c4nc(c(-c5ccc(CS[C@H]6O[C@H](CO)[C@@H](O)[C@H](O)[C@@H]6O)cc5)c5ccc([nH]5)c(-c5ccc(CS[C@H]6O[C@H](CO)[C@@H](O)[C@H](O)[C@@H]6O)cc5)c5nc(c(-c6ccc(CS[C@H]7O[C@H](CO)[C@@H](O)[C@H](O)[C@@H]7O)cc6)c6ccc3[nH]6)C=C5)C=C4)cc2)[C@@H](O)[C@@H](O)[C@@H]1O [Compound 66, TPP(p-CH2-S-α-MannOH)4] | 15 µM | 28 µM | 10 µM | 21 µM |  |  | Cytotoxicity L-1210 (no light), % at 10 μg/ml (L-1210 cells): 0% 10 μg/ml; Photocytotoxicity RBY-79, % at 10 μg/ml ([1]; 10 μg/ml): 20%; Photocytotoxicity HT 29, % at 10 μg/ml ([2]; 10 μg/ml): 40%
OC[C@H]1O[C@H](OCCOCCOc2ccc(-c3c4nc(c(-c5ccc(OCCOCCO[C@H]6O[C@H](CO)[C@@H](O)[C@H](O)[C@@H]6O)cc5)c5ccc([nH]5)c(-c5ccc(OCCOCCO[C@H]6O[C@H](CO)[C@@H](O)[C@H](O)[C@@H]6O)cc5)c5nc(c(-c6ccccc6)c6ccc3[nH]6)C=C5)C=C4)cc2)[C@@H](O)[C@@H](O)[C@@H]1O [Compound 67, TPP(p-O-DEG-O-α-Mann)3] | 0.3 ± 0.08 µM | > 10 µM | 0.7 ± 0.4 µM | > 10 µM | 50% at 1.5 μg/ml, | 1.5 µg/mL | Cytotoxicity L-1210 (no light), concentration giving 50% (L-1210 cells): 50% 8 μg/ml; Photocytotoxicity RBY-79, % at 1 μg/ml ([1]; 1 μg/ml): 0% at 1 μg/ml; Photocytotoxicity RBY-79, % at 2 μg/ml ([1]; 2 μg/ml): 80% at 2 μg/ml,
OC[C@H]1O[C@H](SCCOCCOc2ccc(-c3c4nc(c(-c5ccc(OCCOCCS[C@H]6O[C@H](CO)[C@@H](O)[C@H](O)[C@@H]6O)cc5)c5ccc([nH]5)c(-c5ccc(OCCOCCS[C@H]6O[C@H](CO)[C@@H](O)[C@H](O)[C@@H]6O)cc5)c5nc(c(-c6ccccc6)c6ccc3[nH]6)C=C5)C=C4)cc2)[C@@H](O)[C@@H](O)[C@@H]1O [Compound 68, TPP(p-O-DEG-S-α-Mann)3] | 1 ± 0.5 µM | 6 ± 2 µM | 5.8 ± 3 µM | > 10 µM | 1 µg/mL | 50% 4 μg/ml | Cytotoxicity L-1210 (no light), % at 10 μg/ml (L-1210 cells): 0% 10 μg/ml
TPC(m-O-β-GluOH)4 [Compound 54] | 3 ± 1.4 µM | 3.9 ± 0.1 µM | 4.4 ± 0.1 µM | > 15 µM |  |  | Photocytotoxicity FT-1, Red (FT-1 cells): 20%; Photocytotoxicity A549 (A549): 0, A549, 0%; cytotoxic for Y79 (in words) [1, 7]: cytotoxic
TPP F4(p-S-β-GluOH)3 [Compound 26] | 2.2 µM | > 10 µM | 1.7 µM | 6.5 µM | 3.3 µg/mL | 50% 2 μg/ml | Cytotoxicity L-1210 (no light), % at 10 μg/ml (L-1210 cells): 20% 10 μg/ml; active when activated by light towards tumoral cells (in words) (tumoral cells): active; cytotoxic for HT29 (in words) ([2]; without light): cytotoxic
TPP(p-OC3-S-α-MannOH)3 [Compound 24] | 4.7 µM | 7.5 µM | 3.2 µM | 3.2 µM | 6.5 µg/mL | 4.6 µg/mL | Cytotoxicity L-1210 (no light), concentration giving 50% (L-1210 cells): 50% 14 μg/ml; active when activated by light towards tumoral cells (in words) (tumoral cells): active; phototoxic for Y79 (in words) [1, 10]: less phototoxic; cytotoxic for Y79 (in words) [1, 7]: cytotoxic; phototoxic for HT29 (in words) [2, 10]: less phototoxic; cytotoxic for HT29 (in words) ([2]; without light): cytotoxic
TPP(p-OC3-S-β-GluOH)3 [Compound 23] | 6.5 µM | > 10 µM | 11 µM | 13 µM | 3 µg/mL | 6 µg/mL | Cytotoxicity L-1210 (no light), % at 10 μg/ml (L-1210 cells): 0% 10 μg/ml
benzoporphyrin derivative monoacid ring A [Verteporfin] |  |  |  |  |  |  | period of photosensitivity [4]: one day
porfimer sodium [Photofrin ®, reference compound] |  |  |  |  |  |  | time the drug stays in the skin after treatment ([4]; makes sensitive to strong light): approximately 30 days; period of photosensitivity [4]: several weeks; IC50 ([1]; read-out: Y79 IC50 With 2J/cm^2, estimated concentration, with 2J/cm^2, estimated for mean molecular weight 1178.55 dimer form): 2.6 µM; IC50 ([1]; read-out: Y79 IC50 without light, estimated concentration, without light, estimated for mean molecular weight 1178.55 dimer form): 3.9 µM; concentration at which cytotoxic for the Y79 cells ([1]; remark of the inventors): more than 3,9 μM; Y79 IC50 With 2J/cm^2, in μg/ml ([1]; with 2J/cm^2): 3 µg/mL; Y79 IC50 without light ([1]; without light): 4.6 µg/mL; cytotoxic for Y79 (in words) [1, 7]: cytotoxic; IC50 ([2]; read-out: HT 29 IC50 with 2J/cm^2, estimated concentration, with 2J/cm^2, estimated for mean molecular weight 1178.55 dimer form): 5.1 µM; HT 29 IC50 with 2J/cm^2, in μg/ml ([2]; with 2J/cm^2): 6 µg/mL; HT 29 IC50 without light, in μg/ml ([2]; without light): Inactive for 10 μg/ml
